The source of these data is patent US20120270928A1, “MICRORNA COMPOUNDS AND METHODS FOR MODULATING MIR-21 ACTIVITY” (REGULUS THERAPEUTICS INC., priority 2011, published 2012).

The data set relates to UUO model of kidney fibrosis. Put plainly: Unilateral ureteral obstruction (UUO) model of kidney fibrosis: kidney collagen 1A1 and collagen 3A1 expression by real-time PCR. It counts as in vivo, mice. The conditions noted are these: UUO; 20 mg/kg at days -5, -3, +3; kidney at day 10. On the procedure:
Unilateral ureteral obstruction (UUO) is a well-established experimental model of renal injury leading to interstitial fibrosis, and thus is used as an experimental model that is reflective of human kidney disease. UUO is induced by surgically ligating a single ureter. As fibrosis is characterized by an increase in collagen, the presence and extent of kidney fibrosis may be determined by measuring collagen content. Both collagen 1A1 (Col 1A1) and collagen 3A1 (Col 3A1) are measured to assess collagen content. Kidney fibrosis may be visualized by staining tissue samples with picro-sirius red to detect increases in collagen content. Kidney fibrosis may also be observed by measuring the amount of hydroxyproline, which is a major component of collagen, in a sample.
The cEt-containing anti-miR-21 compounds found to be active in the luciferase assay were tested in the UUO model of kidney fibrosis. 25919 comprising 2′-MOE and 2′-fluoro modifications is known to inhibit miR-21 activity in vivo and was included as a positive control. Groups of 8 animals each were treated as follows: UUO only, UUO with PBS, or UUO with anti-miR-21 compound. Relative to the day of the UUO procedure, PBS or anti-miR-21 compound was administered at days −3, −1, and +5. Anti-miR-21 compounds were administered at a dose of 20 mg/kg. As the anti-miR compounds were administered prior to the UUO procedure, this dosing regimen is considered a prophylactic treatment. At day 11, animals were sacrificed and kidney was isolated for measurement of collagen expression. Collagen expression was measured by real-time PCR and normalized first to GAPDH and then to the sham control animals.
The UUO study was repeated to confirm the activity of 25070. The anti-miR was administered subcutaneously at a dose of 20 mg/kg.
Control treatment groups included UUO only (sham) and UUO with PBS administered subcutaneously. An additional control group included UUO with Tween-MC/20 carrier perorally. 25070 administered subcutaneously at dose of 20 mg/kg at 5 days prior to, 2 days prior to, and 3 days after, the UUO procedure. Irbesartan was administered perorally on daily on days 0 through 7 following the UUO procedure. Animals were sacrificed on Day 10 following the UUO procedure. Kidney tissue was collected for measurement of collagen 1A1 and collagen 3A1 expression.
Compounds 25220 and 25221, as well as 25923, were tested in the UUO model for their effects on fibrosis. Groups of 8 animals each were treated as follows: sham surgery, UUO with PBS, UUO with 25220, UUO with 25221, or UUO with 25923. Relative to the day of the UUO procedure, PBS or anti-miR-21 compound was administered at days −5, −3, and +3. Anti-miR-21 compounds were administered at a dose of 20 mg/kg. As the anti-miR compounds were administered prior to the UUO procedure, this dosing regimen is considered a prophylactic treatment. At day 10, animals were sacrificed and kidney was isolated for measurement of collagen expression. Collagen expression was measured by real-time PCR and normalized to GAPDH.
(In general: Quantitative PCR measures a nucleic acid by following its amplification.)

In the case of “AECSATCSAGTCSTGAUSAAGCSUsAS (ACATCAGTCTGATAAGCTA; sugar and backbone modifications, chemistry not fully specified) [Compound 25221]”, the “collagen 1A1 expression (FIG. 2A, in words)” value was “reduced collagen 1A1 and collagen 3A1 expression by a stastically significant amount”; the “collagen 3A1 expression (FIG. 2B, in words)” value was “reduced collagen 1A1 and collagen 3A1 expression by a stastically significant amount”.
As for “AECSATCSASGTCSUSGAUSASAGCSUsAE (ACATCAGTCTGATAAGCTA; sugar and backbone modifications, chemistry not fully specified) [Compound 25220]”, the “collagen 1A1 expression (FIG. 2A, in words)” value is “reduced collagen 1A1 and collagen 3A1 expression by a stastically significant amount”; the “collagen 3A1 expression (FIG. 2B, in words)” value was “reduced collagen 1A1 and collagen 3A1 expression by a stastically significant amount”.
